Each compound was assayed against T1, Human MrgprX2 (Homo sapiens, UniProt Q96LB1) (assay: FLIPR intracellular calcium mobilization antagonist assay in recombinant hMrgpMRGPRX2 expressing cells). Conditions: antagonist activity, read-out: Human MrgprX2 Antagonist pIC50 (converted).
T1 construct: expressed in transfected cells; host or cells: recombinant cells
T1 sequence (Q96LB1 1-330): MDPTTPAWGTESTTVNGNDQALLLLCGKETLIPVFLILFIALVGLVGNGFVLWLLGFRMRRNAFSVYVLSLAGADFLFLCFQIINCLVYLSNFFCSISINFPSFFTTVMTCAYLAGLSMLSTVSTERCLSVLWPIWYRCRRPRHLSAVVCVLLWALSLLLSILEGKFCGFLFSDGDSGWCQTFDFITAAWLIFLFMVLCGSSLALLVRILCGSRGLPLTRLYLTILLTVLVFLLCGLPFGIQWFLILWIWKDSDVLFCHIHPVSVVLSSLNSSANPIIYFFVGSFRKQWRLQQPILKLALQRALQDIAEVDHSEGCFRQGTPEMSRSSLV
Format: cell-based
Text: [Worded in the source for another species; this species is reported under the same test.] The assays used to determine potencies are functional read-out looking at intracellular calcium mobilization using the FLIPR™ technology. In these FLIPR assays, we test the identified compounds using recombinant cellular systems expressing mouse MrgprB2, mouse MrgprA1, gerbil MrgpMRGPRX2 orthologue, Chinese hamster MrgpMRGPRX2 orthologue and cynomolgus monkey MrgpMRGPRX2 orthologue, respectively for orthologue activity.

Compound	IC50
CCN(C[C@@H](O)C(F)(F)F)C(=O)Nc1nnc(Cc2cc(F)cc(F)c2)s1 [Example E23]	7.94 nM
O=C(Nc1nnc(Cc2cc(F)cc(F)c2)s1)N1CCC(C(F)(F)F)C1 (stereo not drawn) [Example E29]	631 nM
CCN(C[C@H](C)O)C(=O)Nc1nnc(Cc2cccc(F)c2)s1 [Example E11]	3160 nM
C[C@H](O)CN(C)C(=O)Nc1nnc(Cc2cc(F)cc(F)c2)s1 [Example E14]	2510 nM
CC(C)C(=O)Nc1nnc(Cc2cc(F)ccc2F)s1 [Example E05]	2510 nM
O=C(Nc1nnc(Cc2cc(F)cc(F)c2)s1)N1CC[C@H](O)C1 [Example E28]	5010 nM
CCN(C[C@H](C)O)C(=O)Nc1nnc(Cc2cc(F)ccc2F)s1 [Example E12]	2000 nM
C[C@@H](O)CN(C)C(=O)Nc1nnc(Cc2cc(F)cc(F)c2)s1 [Example E15]	3980 nM
CCN(CC1(O)CC1)C(=O)Nc1nnc(Cc2cc(F)cc(F)c2)s1 [Example E30]	79.4 nM
CN(CC(C)(C)O)C(=O)Nc1nnc(Cc2cc(F)cc(F)c2)s1 [Example E20]	200 nM
CCN(C[C@H](C)O)C(=O)Nc1nnc(Cc2cccc(F)c2F)s1 [Example E09, 3-[5-[(2,3-difluorophenyl)methyl]-1,3,4-thiadiazol-2-yl]-1-ethyl-1-[(2S)-2-hydroxypropyl]urea]	1580 nM
CN(CC1CCCO1)C(=O)Nc1nnc(Cc2cc(F)cc(F)c2)s1 (stereo not drawn) [Example E26]	1260 nM
O=C(Nc1nnc(Cc2cc(F)cc(F)c2)s1)N1CCC[C@@H]1CO [Example E16]	2000 nM
CCN(C[C@H](C)O)C(=O)Nc1nnc(Cc2cc(C)cc(F)c2)s1 [Example E22]	794 nM
CCN(C[C@H](C)O)C(=O)Nc1nnc(Cc2cc(F)cc(Cl)c2)s1 [Example E24]	100 nM
CC(C)C(=O)Nc1nnc(Cc2cccc(F)c2F)s1 [Example E04]	1260 nM
CCN(C[C@H](C)O)C(=O)Nc1nnc(Cc2cccc(C)c2)s1 [Example E21]	7940 nM
CCN(C[C@H](C)O)C(=O)Nc1nnc(Cc2cc(F)cc(F)c2)s1 [Example E10]	251 nM
O=C(Nc1nnc(Cc2cc(F)cc(F)c2)s1)N1CCCC1 [Example E25]	7940 nM
CN(CC1CCOC1)C(=O)Nc1nnc(Cc2cc(F)cc(F)c2)s1 (stereo not drawn) [Example E27]	6310 nM
CC(CO)N(C)C(=O)Nc1nnc(Cc2cc(F)cc(F)c2)s1 (stereo not drawn) [Example E17]	3980 nM
CC(C)C(=O)Nc1nnc(Cc2cccc(F)c2)s1 [Example E01, N-[5-[(3-fluorophenyl)methyl]-1,3,4-thiadiazol-2-yl]-2-methyl-propanamide]	2510 nM
CCN(C[C@H](C)O)C(=O)Nc1nnc(Cc2ccc(F)c(F)c2)s1 [Example E13]	2000 nM
CCN(C[C@H](C)O)C(=O)Nc1nnc(Cc2cc(Cl)cc(Cl)c2)s1 [Example E32]	158 nM
CC(C)C(=O)Nc1nnc(Cc2cc(F)cc(F)c2)s1 [Example E03]	251 nM
CC1(C(=O)Nc2nnc(Cc3cc(F)cc(F)c3)s2)CCOC1 (stereo not drawn) [Example E08]	2000 nM
CN(CC1(O)CC1)C(=O)Nc1nnc(Cc2cc(F)cc(F)c2)s1 [Example E31]	1260 nM
CC(C)C(=O)Nc1nnc(Cc2ccc(F)cc2)s1 [Example E02]	7940 nM
CC(C)C(=O)Nc1nnc(Cc2ccc(F)c(F)c2)s1 [Example E06]	1580 nM
CC1(C(=O)Nc2nnc(Cc3cc(F)cc(F)c3)s2)CCOCC1 [Example E07]	1000 nM

Continued, values first:

IC50	Compound
10 nM	CN(C[C@@](C)(O)C(F)(F)F)C(=O)Nc1nnc(Cc2cc(F)cc(F)c2)s1 [Example E55]
85.1 nM	Cc1cc(F)cc(Cc2nnc(NC(=O)N(C)C[C@@](C)(O)C(F)(F)F)s2)c1 [Example E57]
16.2 nM	CN(C[C@@](C)(O)C(F)(F)F)C(=O)Nc1nnc(Cc2cc(F)cc(Cl)c2)s1 [Example E56]
316 nM	CN(CC(C)(O)C(F)(F)F)C(=O)Nc1nnc(Cc2cccc(F)c2)s1 (stereo not drawn) [Example E40, 3-[5-[(3-fluorophenyl)methyl]-1,3,4-thiadiazol-2-yl]-1-methyl-1-(3,3,3-trifluoro-2-hydroxy-2-methyl-propyl)urea]
158 nM	CCN(C[C@@H](O)C(F)(F)F)C(=O)Nc1nnc(Cc2cccc(Cl)c2)s1 [Example E37]
10000 nM	CN(CC(C)(O)C(F)(F)F)C(=O)Nc1nnc(Cc2cccc(F)c2)s1 (single isomer, unassigned) [Example E51, 3-[5-[(3-fluorophenyl)methyl]-1,3,4-thiadiazol-2-yl]-1-methyl-1-(3,3,3-trifluoro-2-hydroxy-2-methyl-propyl)urea]
794 nM	CCN(C[C@H](C)O)C(=O)Nc1nnc(Cc2ccc(F)c(Cl)c2)s1 [Example E35]
3160 nM	CC(C)NC(=O)c1nnc(Cc2cc(F)cc(F)c2)s1 [Example E58, 5-[(3,5-difluorophenyl)methyl]-N-isopropyl-1,3,4-thiadiazole-2-carboxamide]
15.8 nM	CN(CC(C)(O)C(F)(F)F)C(=O)Nc1nnc(Cc2cc(F)cc(F)c2)s1 (stereo not drawn) [Example E33]
38 nM	CCN(C[C@@H](O)C(F)(F)F)C(=O)Nc1nnc(Cc2cc(Cl)cc(Cl)c2)s1 [Example E49]
295 nM	CN(CC(C)(O)C(F)(F)F)C(=O)Nc1nnc(Cc2cccc(F)c2)s1 (single isomer, unassigned) [Example E50, 3-[5-[(3-fluorophenyl)methyl]-1,3,4-thiadiazol-2-yl]-1-methyl-1-(3,3,3-trifluoro-2-hydroxy-2-methyl-propyl)urea]
47.9 nM	CCN(CC(C)(O)C(F)(F)F)C(=O)Nc1nnc(Cc2cccc(F)c2)s1 (stereo not drawn) [Example E42, 1-ethyl-3-[5-[(3-fluorophenyl)methyl]-1,3,4-thiadiazol-2-yl]-1-(3,3,3-trifluoro-2-hydroxy-2-methyl-propyl)urea]
288 nM	CN(C[C@@H](O)C(F)(F)F)C(=O)Nc1nnc(Cc2cc(Cl)cc(Cl)c2)s1 [Example E45]
3390 nM	CCN(CC(C)(O)C(F)(F)F)C(=O)Nc1nnc(Cc2cccc(F)c2)s1 (single isomer, unassigned) [Example E53, 1-ethyl-3-[5-[(3-fluorophenyl)methyl]-1,3,4-thiadiazol-2-yl]-1-(3,3,3-trifluoro-2-hydroxy-2-methyl-propyl)urea]
39.8 nM	CCN(CC(C)(C)O)C(=O)Nc1nnc(Cc2cc(F)cc(F)c2)s1 [Example E38]
2510 nM	CCN(C[C@H](C)O)C(=O)Nc1nnc(C(C)(C)c2cc(F)cc(F)c2)s1 [Example E59, 3-[5-[1-(3,5-difluorophenyl)-1-methyl-ethyl]-1,3,4-thiadiazol-2-yl]-1-ethyl-1-[(2S)-2-hydroxypropyl]urea]
135 nM	CN(C[C@@H](O)C(F)(F)F)C(=O)Nc1nnc(Cc2cc(F)cc(Cl)c2)s1 [Example E47]
16.6 nM	CCN(CC(C)(C)O)C(=O)Nc1nnc(Cc2cc(F)cc(Cl)c2)s1 [Example E41]
14.1 nM	CCN(C[C@@H](O)C(F)(F)F)C(=O)Nc1nnc(Cc2cc(F)cc(Cl)c2)s1 [Example E48]
69.2 nM	CCN(C[C@@H](O)C(F)(F)F)C(=O)Nc1nnc(Cc2cc(C)cc(F)c2)s1 [Example E43]
3980 nM	CCN(C[C@H](C)O)C(=O)Nc1nnc(Cc2cc(Cl)ccc2F)s1 [Example E34]
162 nM	CN(CC(C)(C)O)C(=O)Nc1nnc(Cc2cc(Cl)cc(Cl)c2)s1 [Example E44]
724 nM	CCN(CC(C)(C)O)C(=O)Nc1nnc(Cc2cccc(F)c2)s1 [Example E39]
50.1 nM	CCN(CC(C)(O)C(F)(F)F)C(=O)Nc1nnc(Cc2cccc(F)c2)s1 (single isomer, unassigned) [Example E52, 1-ethyl-3-[5-[(3-fluorophenyl)methyl]-1,3,4-thiadiazol-2-yl]-1-(3,3,3-trifluoro-2-hydroxy-2-methyl-propyl)urea]
126 nM	CN(C[C@](C)(O)C(F)(F)F)C(=O)Nc1nnc(Cc2cc(F)cc(F)c2)s1 [Example E54, 3-[5-[(3,5-difluorophenyl)methyl]-1,3,4-thiadiazol-2-yl]-1-methyl-1-[(2S)-3,3,3-trifluoro-2-hydroxy-2-methyl-propyl]urea]
372 nM	CCN(CC(C)(C)O)C(=O)Nc1nnc(Cc2cc(C)cc(F)c2)s1 [Example E46]
200 nM	CCN(C[C@@H](O)C(F)(F)F)C(=O)Nc1nnc(Cc2cccc(F)c2)s1 [Example E36]

Reference: US20230002336A1, “MrgprX2 Antagonists and Uses Thereof” (Dermira, Inc., priority 2019, published 2023)
